From patent publication US20080249006A1, “Pharmaceutical Preparation for the Treatment of Shock” (FIBREX MEDICAL RESEARCH & DEVELOPMENT GESMBH, priority 2004, published 2008)
One block for each substance: values may come before it.

Assays:
[1] = target: T1, recombinant human VE-cadherin FC fusion protein (Homo sapiens, UniProt P33151); assay: ELISA: binding of FLAG-tagged peptide to coated VE-cadherin
T1 construct: Fc (immunoglobulin Fc fusion partner); purchased R&D Systems, Minneapolis
Description: (§1) We have developed a modified ELISA working with the same principles described by others, but the purpose of the herein described ELISA is not to quantify fibrin degradation products, but to search for proteins, peptides or compounds which interfere with the binding of the Bbeta15-42 sequence and the VE-cadherin. […] Into this system one can introduce any other additional substance and measure if this substance inhibits VE-cadherin/Bbeta15-42 binding.
(§2) In detail, 96 well protein immobilizer plates (Exiqon, Vedbaek, D K) were coated with recombinant human VE-cadherin FC fusion protein (8 nM/ml; R&D Systems, Minneapolis) in PBS and were left overnight at 4° C. Plates were then washed and incubated with peptide Bβ15-42 ([…]) tagged with a FLAG-sequence (DYKDDDDK) at the C-terminus of the peptide or with a FLAG-tagged random peptide ([…]) at a concentration of 0-80 μMol. After washing, bound FLAG-tagged peptide was detected by incubation with a peroxidase-labelled anti-FLAG antibody (Sigma, St. Louis, USA) and chromogenic substrate. Optical density was determined by an ELISA plate reader set at a wavelength of 450 nm. Data represent the mean of three independent experiments, each performed in triplicates.

VE-cadherin = target: T2, VE-cadherin (Homo sapiens, UniProt P33151); assay: Competition ELISA: inhibition of FLAG-tagged Bbeta15-42 binding to VE-cadherin; conditions: for % inhibition of 15-42FLAG-binding to VE-cadherin mean ± SD: FLAG-tagged Bbeta15-42 12 μM
T2 construct: Fc (immunoglobulin Fc fusion partner); purchased R&D Systems, Minneapolis
T2 sequence (P33151 with tags, fused parts or gaps limits assumed): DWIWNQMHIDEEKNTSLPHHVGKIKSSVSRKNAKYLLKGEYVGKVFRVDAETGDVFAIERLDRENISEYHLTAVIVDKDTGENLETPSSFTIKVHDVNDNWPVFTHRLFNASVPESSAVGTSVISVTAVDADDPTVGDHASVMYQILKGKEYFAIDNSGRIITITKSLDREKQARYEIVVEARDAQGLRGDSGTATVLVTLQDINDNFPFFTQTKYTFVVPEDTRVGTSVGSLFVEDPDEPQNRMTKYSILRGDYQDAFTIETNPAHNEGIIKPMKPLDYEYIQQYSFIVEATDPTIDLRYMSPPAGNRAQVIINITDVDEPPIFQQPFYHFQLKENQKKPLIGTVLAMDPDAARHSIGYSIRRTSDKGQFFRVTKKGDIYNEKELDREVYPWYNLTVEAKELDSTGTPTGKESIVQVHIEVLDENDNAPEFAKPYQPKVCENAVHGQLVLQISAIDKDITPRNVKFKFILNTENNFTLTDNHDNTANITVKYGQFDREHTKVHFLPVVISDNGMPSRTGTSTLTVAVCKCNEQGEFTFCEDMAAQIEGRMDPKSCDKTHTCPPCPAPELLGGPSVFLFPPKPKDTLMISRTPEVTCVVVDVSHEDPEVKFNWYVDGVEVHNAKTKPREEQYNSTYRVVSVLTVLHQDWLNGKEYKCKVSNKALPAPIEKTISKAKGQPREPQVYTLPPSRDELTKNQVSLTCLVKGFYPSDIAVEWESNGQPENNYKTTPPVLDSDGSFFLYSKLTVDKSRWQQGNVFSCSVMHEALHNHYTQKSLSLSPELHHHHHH
Description: as §1, §2
In a next step, we analyzed whether this ELISA can be used to screen for other peptides/compounds to compete with the binding of the Bβ15-42 sequence to VE-cadherin.
VE-cadherin was coated to the plastic surface at a concentration of 8 nM. Then indicated peptides were added at concentrations of 200 μM, NDSK or NDSK-II were added at indicated concentrations. Detection of binding of the FLAG-tagged Bbeta15-42 (12 μM) was performed as described above.

[2] = test system: Dengue virus type 2 (DEN-2), strain P23085; assay: Treatment of dengue virus infected mice; type: in vivo, BALB/c mice; conditions: for IL-1 / IL-6 / TNF: serum
[3] = test system: Gram-negative shock, Lipopolysaccharide from E. coli, serotype 0.127:B8; assay: Gram-negative shock (LPS-induced multiple organ failure) in rats; type: in vivo, Wistar rats; parameters: Glucose / Amylase / ALT / AST / Creatinine / Urea / heart rate (mean): unit not given here; conditions: for mean number of fibrin thrombi within vessels: end of the experiment, acidic fuchsin-orange G stain
Experimental: Male Wistar rats weighing 230-280 g were housed in the Tierversuchsanlage (University of Düisseldorf) and fed on a standard diet with water ad libitum. All procedures were carried out in accordance with the AAALAC guidelines and Guide for the Care and Use of Laboratory Animals (Department of Health and Human Services, National Institutes of Health, Publication No. 86-23). In addition, all experiments have been approved by an ethical and research board of the University of Düisseldorf and the county. As previously described (Zacharowski et al. Crit. Care Med 2000, Zacharowski et al. Crit. Care Med 2001; 29:1599-1608), rats were anaesthetized with sodium thiopentone (120 mg/kg i.p.) and anesthesia was maintained with supplementary doses of sodium thiopentone as required.
The trachea was cannulated to facilitate respiration and rectal temperature was maintained at 37° C. with a homoeothermic blanket. […] The right jugular vein was cannulated for the administration of drugs. The bladder was also cannulated to facilitate urine flow and to prevent the possibility of the development of post-renal failure. All animals received a total fluid replacement of 1.0 ml/kg/h (0.9% sodium chloride, saline, as an i.v. infusion into the jugular vein) throughout the experiment. Upon completion of the surgical procedure, cardiovascular parameters were allowed to stabilize for 15 min and constantly recorded over 6 h. In this model of LPS-induced multiple organ failure, a period of 6 h is essential to achieve a significant rise in the serum levels of AST and ALT, while a significant rise in the serum levels of urea and creatinine can already be observed after 2 h.
Three groups were studied: Rats were subjected to sham operation: (sham). Rats were subjected to Gram-negative shock. Lipopolysaccharide from E. coli, serotype 0.127:B8 (6 mg/kg i.v.) was given over 5 min i.v., 1 h later, animals received saline (2.4 ml/kg): (LPS+saline). Rats were subjected to Gram-negative shock. Lipopolysaccharide from E. coli, serotype 0.127:B8 (6 mg/kg i.v.) was given over 5 min i.v., animals received Bβ15-42 (2.4 mg/kg): (LPS+Bβ15-42).
Six hours after the induction of Gram-negative shock, blood was collected from the catheter placed in the right carotid artery. The blood sample was centrifuged (1610×g for 3 min at room temperature) to separate plasma. The following marker enzymes were measured in the plasma as biochemical indicators of multiple organ injury/dysfunction:
Liver injury was assessed by measuring the rise in plasma levels of alanine aminotransferase (ALT, a specific marker for hepatic parenchymal injury) and aspartate aminotransferase (AST, a non-specific marker for hepatic injury).
Plasma levels of glucose and amylase were measured as indirect markers of pancreatic function and injury.
In addition, arterial pO2 was measured as indirect marker of lung function/injury. Laboratory values
Organ (lung, liver, heart and kidney) biopsies of all groups studied were taken at the end of the experiment. The biopsies were fixed in buffered formaldehyde solution (4% in phosphate buffered saline) at room temperature and sent to Vienna. […] In sham treated animals no fibrin thrombi were present.

endothelial surfaces = conditions: in vitro; cited from earlier work
endothelium = conditions: cited from earlier work
[4] = in vivo, ischemia/reperfusion; cited from earlier work
[5] = blocking reagent 200 μM, VE-cadherin 8 nM
[6] = DEN-2 1 LD50 i.p., 4800 μg/kg i.p. twice per day, day 3 to day 8 post infection, p < 0.05 between groups
[7] = plasma, 6 h after induction of Gram-negative shock, Bβ15-42 2.4 mg/kg

T1 sequence (P33151 with tags, fused parts or gaps limits assumed): as above

Substance: GHRPLDKKREEAPSLRPAPPPISGGGYR [Bβ15-42, peptide matching amino acids 15-42 of the Bbeta chain of human fibrin]
Binding to VE-cadherin (in words) ([1]; FLAG-tagged peptide 0-80 μMol): bound to VE-cadherin in a concentration-dependent manner
Inhibition of binding of flag-tagged peptide Bβ15-42 to VE-cadherin (in words) (VE-cadherin): completely inhibited
% inhibition of 15-42FLAG-binding to VE-cadherin mean ± SD (VE-cadherin; [5]): 100 ± 10%
mean time to death ([2]; DEN-2 1 LD50 i.p., 4800 μg/kg i.p. twice per day, day 3 to day 8 post infection): All mice survived
Mortality (%) [2, 6]: 0%
Survival (%) [2, 6]: 100%
viremia ([2]; day 2): 1.2 ± 0.2 1 g PFU/ml
viremia ([2]; day 3^b): 2.2 ± 0.2 1 g PFU/ml
hematokrit ([2]; day 3 after challenge): 15%
viremia ([2]; day 4): 4.2 ± 0.2 1 g PFU/ml
viremia ([2]; day 5): 5.6 ± 0.4 1 g PFU/ml
hematokrit ([2]; day 5 after challenge): 33%
viremia ([2]; day 6): 6.0 ± 0.4 1 g PFU/ml
viremia ([2]; day 7): 5.9 ± 0.4 1 g PFU/ml
hematokrit ([2]; day 7 after challenge): 43%
viremia ([2]; day 28): 0 1 g PFU/ml
viremia ([2]; first line of the table, day number not given): 0 1 g PFU/ml
IL-1 ([2]; day 3 after challenge): 32 pg/mL
IL-6 ([2]; day 3 after challenge): 140 pg/mL
TNF ([2]; day 3 after challenge): 32 pg/mL
IL-1 ([2]; day 5 after challenge): 29 pg/mL
IL-6 ([2]; day 5 after challenge): 110 pg/mL
TNF ([2]; day 5 after challenge): 65 pg/mL
IL-1 ([2]; day 7 after challenge): 28 pg/mL
IL-6 ([2]; day 7 after challenge): 100 pg/mL
TNF ([2]; day 7 after challenge): 45 pg/mL
Survival ([3]; LPS 6 mg/kg i.v. plus Bβ15-42 2.4 mg/kg, n = 20 in each group, p < 0.05): 88%
heart rate (mean) ([3]; LPS + Bβ15-42, time 0 h): 436.9
mean arterial pressure (mean) ([3]; LPS + Bβ15-42, time 0 h): 128.9
heart rate (mean) ([3]; LPS + Bβ15-42, time 1 h): 484.8
mean arterial pressure (mean) ([3]; LPS + Bβ15-42, time 1 h): 83.7
heart rate (mean) ([3]; LPS + Bβ15-42, time 2 h): 484.1
mean arterial pressure (mean) ([3]; LPS + Bβ15-42, time 2 h): 102.3
heart rate (mean) ([3]; LPS + Bβ15-42, time 3 h): 509.8
mean arterial pressure (mean) ([3]; LPS + Bβ15-42, time 3 h): 103.2
heart rate (mean) ([3]; LPS + Bβ15-42, time 4 h): 516.7
mean arterial pressure (mean) ([3]; LPS + Bβ15-42, time 4 h): 101.2
heart rate (mean) ([3]; LPS + Bβ15-42, time 5 h): 533.7
mean arterial pressure (mean) ([3]; LPS + Bβ15-42, time 5 h): 97.1
heart rate (mean) ([3]; LPS + Bβ15-42, time 6 h): 541.6
mean arterial pressure (mean) ([3]; LPS + Bβ15-42, time 6 h): 107.7
Fibrin thrombi in sections stained for fibrin deposits, controls versus treated (in words) ([3]; acidic fuchsin-orange G, p<0.05): significantly elevated numbers of fibrin thrombi in controls receiving LPS alone as compared with animals treated with LPS plus Bβ15-42
pO2 ([3]; arterial, 6 h after induction of Gram-negative shock, Bβ15-42 2.4 mg/kg): 98.7
Standard H&E-stained organ sections (lung, liver, heart, kidney), comparison of groups ([3]; biopsies at the end of the experiment): no differences
mean number of fibrin thrombi within vessels ([3]; heart): 5 + 2
mean number of fibrin thrombi within vessels ([3]; kidney): 2 + 9
mean number of fibrin thrombi within vessels ([3]; liver): 78 + 37
mean number of fibrin thrombi within vessels ([3]; lung): 1 + 0
ALT [3, 7]: 261.9
AST [3, 7]: 529.0
Amylase [3, 7]: 1945.1
Creatinine [3, 7]: 0.6
Glucose [3, 7]: 45.8
Urea [3, 7]: 107.8
Binding of fibrin fragments to endothelial surfaces (in words) (endothelial surfaces): blocks binding of fibrin fragments to endothelial surfaces
Inflammation in vitro (in words) (endothelium): blocks inflammation in vitro
Myocardial infarct sizes (in words) [4]: reduces myocardial infarct sizes
Myocardial inflammation (in words) [4]: prevents myocardial inflammation

% inhibition of 15-42FLAG-binding to VE-cadherin mean ± SD (VE-cadherin; blocking reagent 12 μM): 7 ± 1%
% inhibition of 15-42FLAG-binding to VE-cadherin mean ± SD (VE-cadherin; [5]): 67 ± 17%
Substance: peptide 15-34 (20mer): shorter peptide, amino acids 15-34 of the fibrin Bβ chain

% inhibition of 15-42FLAG-binding to VE-cadherin mean ± SD (VE-cadherin; blocking reagent 12 μM): 5 ± 2%
% inhibition of 15-42FLAG-binding to VE-cadherin mean ± SD (VE-cadherin; [5]): 55 ± 13%
Substance: peptide 16-42 (27mer): shorter peptide, amino acids 16-42 of the fibrin Bβ chain

% inhibition of 15-42FLAG-binding to VE-cadherin mean ± SD (VE-cadherin; blocking reagent 12 μM): 7 ± 2%
% inhibition of 15-42FLAG-binding to VE-cadherin mean ± SD (VE-cadherin; [5]): 65 ± 12%
Substance: peptide 15-18 (4mer): shorter peptide, amino acids 15-18 of the fibrin Bβ chain

% inhibition of 15-42FLAG-binding to VE-cadherin mean ± SD (VE-cadherin; blocking reagent 12 μM): 6 ± 1%
% inhibition of 15-42FLAG-binding to VE-cadherin mean ± SD (VE-cadherin; [5]): 64 ± 10%
Substance: peptide 15-26 (12mer): shorter peptide, amino acids 15-26 of the fibrin Bβ chain

Binding to VE-cadherin, optical density at 450 nm (mean) ([1]; FLAG-tagged peptide 0 μM): 0
Binding to VE-cadherin, optical density at 450 nm (mean) ([1]; FLAG-tagged peptide 0.23 μM): 0.01
Binding to VE-cadherin, optical density at 450 nm (mean) ([1]; FLAG-tagged peptide 0.7 μM): 0.02
Binding to VE-cadherin, optical density at 450 nm (mean) ([1]; FLAG-tagged peptide 2.3 μM): 0.08
Binding to VE-cadherin, optical density at 450 nm (mean) ([1]; FLAG-tagged peptide 7 μM): 0.33
Binding to VE-cadherin, optical density at 450 nm (mean) ([1]; FLAG-tagged peptide 14 μM): 0.92
Binding to VE-cadherin, optical density at 450 nm (mean) ([1]; FLAG-tagged peptide 21 μM): 1.3
Binding to VE-cadherin, optical density at 450 nm (mean) ([1]; FLAG-tagged peptide 35 μM): 1.5
Binding to VE-cadherin, optical density at 450 nm (mean) ([1]; FLAG-tagged peptide 46 μM): 1.93
Binding to VE-cadherin, optical density at 450 nm (mean) ([1]; FLAG-tagged peptide 70 μM): 2.1
Substance: 15-42 FLAG: peptide Bβ15-42 (GHRPLDKKREEAPSLRPAPPPISGGGYR) tagged with a FLAG-sequence (DYKDDDDK) at the C-terminus (GHRPLDKKREEAPSLRPAPPPISGGGYRDYKDDDDK)

% inhibition of 15-42FLAG-binding to VE-cadherin mean ± SD (VE-cadherin; blocking reagent 12 μM): 7 ± 2%
% inhibition of 15-42FLAG-binding to VE-cadherin mean ± SD (VE-cadherin; [5]): 17 ± 19%
Substance: peptide 15-37 (24mer): shorter peptide, amino acids 15-37 of the fibrin Bβ chain

% inhibition of 15-42FLAG-binding to VE-cadherin mean ± SD (VE-cadherin; blocking reagent 12 μM): 6 ± 3%
% inhibition of 15-42FLAG-binding to VE-cadherin mean ± SD (VE-cadherin; [5]): 61 ± 13%
Substance: peptide 15-30 (16mer): shorter peptide, amino acids 15-30 of the fibrin Bβ chain
